For one assay, the system named is Hepatitis C virus. As to the kind of experiment: Antiviral activity against HCV genotype 1b infected in Rluc cells by 384 well-format assay. In kind it is functional, organism-based, Hepacivirus hominis.
Assay [1] in a line: Inhibition of HCV genotype 1b NS3/4A protease. Details: species or system Hepatitis C virus subtype 1b.

Molecules are shown by their SMILES.

In general, EC50 refers to the concentration needed to bring the measured effect to its halfway point. A word on the IC50: it is the concentration needed to halve the response being measured. A higher IC50 goes with weaker potency. `C=C[C@@H]1C[C@]1(NC(=O)[C@@H]1C[C@@H](Oc2cc(-c3nc(C(C)C)cs3)nc3c(C)c(OC)ccc23)[C@H]2CCCC(=O)N21)C(=O)NS(=O)(=O)C1CC1` displayed an EC50 with Hepatitis C virus of over 2000 nM. Also, the IC50 in assay [1] worked out at 47 nM.
Take `COc1ccc2c(O[C@@H]3C[C@H]4C(=O)N[C@]5(C(=O)O)C[C@H]5/C=C\CCCCCS(=O)(=O)N4C3)cc(-c3nc(C(C)C)cs3)nc2c1C`: the EC50 in the assay with Hepatitis C virus was over 2000 nM. In addition, in assay [1], the midpoint of inhibition, the IC50, lay at 747 nM.
The matching figures for `COc1ccc2c(O[C@@H]3C[C@H]4C(=O)N[C@]5(C(=O)NS(=O)(=O)C6CC6)C[C@H]5/C=C\CCCCCS(=O)(=O)N4C3)cc(-c3nc(C(C)C)cs3)nc2c1C`: 79 nM and 2.9 nM.
The corresponding values for `COc1ccc2c(O[C@@H]3C[C@H]4C(=O)N[C@]5(C(=O)NS(=O)(=O)C6CC6)C[C@H]5CCCCCCCS(=O)(=O)N4C3)cc(-c3nc(C(C)C)cs3)nc2c1C` are 89 nM and 4.7 nM.
In turn, `COc1ccc2c(O[C@@H]3C[C@H]4C(=O)N[C@]5(C(=O)O)C[C@H]5/C=C\CCCCCCS(=O)(=O)N4C3)cc(-c3nc(C(C)C)cs3)nc2c1C` displayed an EC50 with Hepatitis C virus of over 2000 nM. The compound also displayed a concentration for half-maximal inhibition (IC50) in assay [1] of 712 nM.
The corresponding values for `COc1ccc2c(O[C@@H]3C[C@H]4C(=O)N[C@]5(C(=O)NS(=O)(=O)C6CC6)C[C@H]5/C=C\CCCCCCS(=O)(=O)N4C3)cc(-c3nc(C(C)C)cs3)nc2c1C` are 440 nM and 13 nM.
The compound `COc1ccc2c(O[C@@H]3C[C@H]4C(=O)N[C@]5(C(=O)NS(=O)(=O)C6CC6)C[C@H]5CCCCCCCCS(=O)(=O)N4C3)cc(-c3nc(C(C)C)cs3)nc2c1C` registered an EC50 with Hepatitis C virus of 257 nM. Also, the IC50 in assay [1] was determined as 7.4 nM.
The corresponding values for `C=C[C@@H]1C[C@]1(NC(=O)[C@@H]1C[C@@H](Oc2cc(-c3nc(C(C)C)cs3)nc3c(C)c(OC)ccc23)[C@H]2CCCS(=O)(=O)N21)C(=O)NS(=O)(=O)C1CC1` are over 2000 nM and 639 nM.
The matching figures for `COc1ccc2c(O[C@@H]3C[C@H]4C(=O)N[C@]5(C(=O)NS(=O)(=O)C6CC6)C[C@H]5/C=C\CCCCCCC(=O)N4C3)cc(-c3nc(C(C)C)cs3)nc2c1C`: 5.8 nM and 0.3 nM.
The matching figures for `COc1ccc2c(O[C@@H]3C[C@H]4C(=O)N[C@]5(C(=O)NS(=O)(=O)C6CC6)C[C@H]5/C=C\CCCCCC(=O)N4C3)cc(-c3nc(C(C)C)cs3)nc2c1C`: 4 nM and 0.4 nM.

The values above are taken from ChEMBL document CHEMBL3112464, “Novel, sulfonamide linked inhibitors of the hepatitis C virus NS3 protease” (Bioorg Med Chem Lett, 2014).
